# Source: patent publication US10167262B2, “Herbicidal substituted 3-arylpyrazoles” (FMC CORPORATION, priority 2014, dated 2019)
# Columns and labels:
# Type in all cases: in vivo
# [1] = tested on: waterhemp (common waterhemp, Amaranthus rudis); assay: Test E pre-/postemergence greenhouse test, plant response rating 0-100; details: scale 0 to 100; for Plant response rating, Waterhemp: Postemergence; for Waterhemp plant response rating: Preemergence
# In short: (§1)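 Sow seeds in silt loam and treat preemergence; at the same time, spray postemergence on 1- to 4-leaf plants in peat/vermiculite mix. Use a non-phytotoxic solvent plus surfactant as carrier. Hold 14–21 days in greenhouse, then score visually 0–100 against controls.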
# [2] = tested on: barnyardgrass (Echinochloa crus-galli); assay: as above; details: scale 0 to 100; for Plant response rating, Barnyardgrass: Postemergence; for Barnyardgrass plant response rating: Preemergence
# In short: as §1
# [3] = tested on: hairy beggarticks (Bidens pilosa); assay: as above; details: scale 0 to 100; for Plant response rating, Beggarticks: Postemergence; for Beggarticks plant response rating: Preemergence
# In short: as §1
# [4] = tested on: Brazilian crabgrass (Digitaria horizontalis); assay: as above; details: Postemergence, scale 0 to 100
# In short: as §1
# [5] = tested on: dayflower (Virginia (VA) dayflower, Commelina virginica); assay: as above; details: scale 0 to 100; for Plant response rating, Dayflower, VA: Postemergence
# In short: as §1
# [6] = tested on: wild poinsettia (Euphorbia heterophylla); assay: as above; details: scale 0 to 100; for Plant response rating, Poinsettia, Wild: Postemergence; for Poinsettia, Wild plant response rating: Preemergence
# In short: as §1
# [7] = tested on: fall panicum (Panicum dichotomiflorum); assay: as above; details: scale 0 to 100; for Plant response rating, Panicum, Fall: Postemergence; for Panicum, Fall plant response rating: Preemergence
# In short: as §1
# [8] = tested on: palmer pigweed (Amaranthus palmeri); assay: as above; details: scale 0 to 100; for Plant response rating, Pigweed, Palmer: Postemergence; for Pigweed, Palmer plant response rating: Preemergence
# In short: as §1
# [9] = tested on: arrowleaf sida (Sida rhombifolia); assay: as above; details: for Plant response rating, Arrowleaf Sida: Postemergence; for Arrowleaf Sida plant response rating: Preemergence
# In short: as §1
# [10] = tested on: sandbur (southern sandbur, Cenchrus echinatus); assay: as above; details: scale 0 to 100; for Plant response rating, Sandbur: Postemergence; for Sandbur plant response rating: Preemergence
# In short: as §1
# [11] = tested on: barnyardgrass (Echinochloa crus-galli); assay: Test B flooded paddy test, plant response rating 0-100; details: Flood, 250 g ai/ha; scale 0 to 100 (0 no effect, 100 complete control); 13 to 15 days
# In short: (§2)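 Pots were flooded to 3 cm above the soil surface at treatment, compound applied directly to the paddy water, and that depth held throughout. Plants were kept in a greenhouse for 13 to 15 days, then visually rated against untreated controls.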
# [12] = tested on: sedge, umbrella (small-flower umbrella sedge, Cyperus difformis); assay: as above; details: Flood, 250 g ai/ha; scale 0 to 100 (0 no effect, 100 complete control); 13 to 15 days
# In short: as §2
# [13] = tested on: ducksalad (Heteranthera limosa); assay: as above; details: Flood, 250 g ai/ha; scale 0 to 100 (0 no effect, 100 complete control); 13 to 15 days
# In short: as §2
# rice (Oryza sativa) = assay: as above; details: Flood, 250 g ai/ha; scale 0 to 100 (0 no effect, 100 complete control); 13 to 15 days
# In short: as §2
# [14] = 500 g ai/ha, scale 0 to 100 (0 no effect, 100 complete control)
smiles,measurement,setting,value
O=C(c1ccccc1)c1cn(S(=O)(=O)C(F)(F)F)nc1-c1cc(Cl)cc(Cl)c1 [Compound 2],"Plant response rating, Waterhemp",[1]; 31 g ai/ha,90
same,"Plant response rating, Waterhemp",[1]; 62 g ai/ha,80
same,"Plant response rating, Waterhemp",[1]; 125 g ai/ha,98
same,"Plant response rating, Waterhemp",[1]; 250 g ai/ha,98
same,"Plant response rating, Waterhemp",[1]; 500 g ai/ha,100
same,Waterhemp plant response rating,[1]; 31 g ai/ha,0
same,Waterhemp plant response rating,[1]; 125 g ai/ha,30
same,Waterhemp plant response rating,[1]; 250 g ai/ha,65
same,Waterhemp plant response rating,[1]; 500 g ai/ha,100
same,"Plant response rating, Barnyardgrass",[2]; 31 g ai/ha,0
same,"Plant response rating, Barnyardgrass",[2]; 62 g ai/ha,0
same,"Plant response rating, Barnyardgrass",[2]; 125 g ai/ha,0
same,"Plant response rating, Barnyardgrass",[2]; 250 g ai/ha,0
same,"Plant response rating, Barnyardgrass",[2]; 500 g ai/ha,0
same,Barnyardgrass plant response rating,[2]; 31 g ai/ha,0
same,Barnyardgrass plant response rating,[2]; 62 g ai/ha,0
same,Barnyardgrass plant response rating,[2]; 125 g ai/ha,0
same,Barnyardgrass plant response rating,[2]; 250 g ai/ha,0
same,Barnyardgrass plant response rating,[2]; 500 g ai/ha,0
same,"Plant response rating, Beggarticks",[3]; 31 g ai/ha,80
same,"Plant response rating, Beggarticks",[3]; 62 g ai/ha,90
same,"Plant response rating, Beggarticks",[3]; 125 g ai/ha,100
same,"Plant response rating, Beggarticks",[3]; 250 g ai/ha,100
same,"Plant response rating, Beggarticks",[3]; 500 g ai/ha,100
same,Beggarticks plant response rating,[3]; 31 g ai/ha,0
same,Beggarticks plant response rating,[3]; 62 g ai/ha,0
same,Beggarticks plant response rating,[3]; 125 g ai/ha,0
same,Beggarticks plant response rating,[3]; 250 g ai/ha,0
same,Beggarticks plant response rating,[3]; 500 g ai/ha,0
same,"Plant response rating, Crabgrass, Brazil",[4]; 31 g ai/ha,0
same,"Plant response rating, Crabgrass, Brazil",[4]; 62 g ai/ha,0
same,"Plant response rating, Crabgrass, Brazil",[4]; 125 g ai/ha,0
same,"Plant response rating, Crabgrass, Brazil",[4]; 250 g ai/ha,0
same,"Plant response rating, Crabgrass, Brazil",[4]; 500 g ai/ha,0
same,"Plant response rating, Dayflower, VA",[5]; 31 g ai/ha,0
same,"Plant response rating, Dayflower, VA",[5]; 62 g ai/ha,0
same,"Plant response rating, Dayflower, VA",[5]; 125 g ai/ha,0
same,"Plant response rating, Dayflower, VA",[5]; 250 g ai/ha,0
same,"Plant response rating, Dayflower, VA",[5]; 500 g ai/ha,0
same,"Dayflower, VA plant response rating","[5]; Preemergence, 62 g ai/ha",0
same,"Plant response rating, Poinsettia, Wild",[6]; 31 g ai/ha,0
same,"Plant response rating, Poinsettia, Wild",[6]; 62 g ai/ha,0
same,"Plant response rating, Poinsettia, Wild",[6]; 125 g ai/ha,0
same,"Plant response rating, Poinsettia, Wild",[6]; 250 g ai/ha,0
same,"Plant response rating, Poinsettia, Wild",[6]; 500 g ai/ha,0
same,"Poinsettia, Wild plant response rating",[6]; 62 g ai/ha,0
same,"Poinsettia, Wild plant response rating",[6]; 125 g ai/ha,0
same,"Poinsettia, Wild plant response rating",[6]; 250 g ai/ha,0
same,"Poinsettia, Wild plant response rating",[6]; 500 g ai/ha,0
same,"Plant response rating, Panicum, Fall",[7]; 31 g ai/ha,0
same,"Plant response rating, Panicum, Fall",[7]; 62 g ai/ha,0
same,"Plant response rating, Panicum, Fall",[7]; 125 g ai/ha,0
same,"Plant response rating, Panicum, Fall",[7]; 250 g ai/ha,25
same,"Plant response rating, Panicum, Fall",[7]; 500 g ai/ha,40
same,"Panicum, Fall plant response rating",[7]; 31 g ai/ha,0
same,"Panicum, Fall plant response rating",[7]; 62 g ai/ha,0
same,"Panicum, Fall plant response rating",[7]; 125 g ai/ha,0
same,"Panicum, Fall plant response rating",[7]; 250 g ai/ha,0
same,"Panicum, Fall plant response rating",[7]; 500 g ai/ha,0
same,"Plant response rating, Pigweed, Palmer",[8]; 31 g ai/ha,65
same,"Plant response rating, Pigweed, Palmer",[8]; 62 g ai/ha,85
same,"Plant response rating, Pigweed, Palmer",[8]; 125 g ai/ha,90
same,"Plant response rating, Pigweed, Palmer",[8]; 250 g ai/ha,95
same,"Plant response rating, Pigweed, Palmer",[8]; 500 g ai/ha,100
same,"Pigweed, Palmer plant response rating",[8]; 31 g ai/ha,0
same,"Pigweed, Palmer plant response rating",[8]; 62 g ai/ha,0
same,"Pigweed, Palmer plant response rating",[8]; 125 g ai/ha,0
same,"Pigweed, Palmer plant response rating",[8]; 250 g ai/ha,0
same,"Pigweed, Palmer plant response rating",[8]; 500 g ai/ha,100
same,"Plant response rating, Arrowleaf Sida","[9]; 31 g ai/ha, scale 0 to 100",95
same,"Plant response rating, Arrowleaf Sida","[9]; 62 g ai/ha, scale 0 to 100",95
same,"Plant response rating, Arrowleaf Sida","[9]; 125 g ai/ha, scale 0 to 100",95
same,"Plant response rating, Arrowleaf Sida","[9]; 250 g ai/ha, scale 0 to 100",95
same,"Plant response rating, Arrowleaf Sida",[9]; [14],98
same,Arrowleaf Sida plant response rating,"[9]; 31 g ai/ha, scale 0 to 100",35
same,Arrowleaf Sida plant response rating,"[9]; 62 g ai/ha, scale 0 to 100",35
same,Arrowleaf Sida plant response rating,"[9]; 125 g ai/ha, scale 0 to 100",50
same,Arrowleaf Sida plant response rating,"[9]; 250 g ai/ha, scale 0 to 100",98
same,Arrowleaf Sida plant response rating,"[9]; 500 g ai/ha, scale 0 to 100",95
same,"Plant response rating, Sandbur",[10]; 31 g ai/ha,0
same,"Plant response rating, Sandbur",[10]; 62 g ai/ha,0
same,"Plant response rating, Sandbur",[10]; 125 g ai/ha,0
same,"Plant response rating, Sandbur",[10]; 250 g ai/ha,0
same,"Plant response rating, Sandbur",[10]; 500 g ai/ha,0
same,Sandbur plant response rating,[10]; 31 g ai/ha,0
same,Sandbur plant response rating,[10]; 62 g ai/ha,0
same,Sandbur plant response rating,[10]; 125 g ai/ha,0
same,Sandbur plant response rating,[10]; 250 g ai/ha,0
same,Sandbur plant response rating,[10]; 500 g ai/ha,0
same,"Plant response rating, Barnyardgrass",[11],0
same,"Plant response rating, Sedge, Umbrella",[12],0
same,"Plant response rating, Ducksalad",[13],0
same,"Plant response rating, Rice",rice (Oryza sativa),0
Fc1cccc(NN=C(c2ccccc2)c2c[nH]nc2-c2cc(Cl)cc(Cl)c2)c1 [Compound 58],"Plant response rating, Waterhemp",[1]; 31 g ai/ha,80
same,"Plant response rating, Waterhemp",[1]; 62 g ai/ha,90
same,"Plant response rating, Waterhemp",[1]; 125 g ai/ha,95
same,"Plant response rating, Waterhemp",[1]; 250 g ai/ha,100
same,"Plant response rating, Waterhemp",[1]; 500 g ai/ha,100
same,"Plant response rating, Barnyardgrass",[2]; 31 g ai/ha,0
same,"Plant response rating, Barnyardgrass",[2]; 62 g ai/ha,0
same,"Plant response rating, Barnyardgrass",[2]; 125 g ai/ha,0
same,"Plant response rating, Barnyardgrass",[2]; 250 g ai/ha,0
same,"Plant response rating, Barnyardgrass",[2]; 500 g ai/ha,0
same,"Plant response rating, Beggarticks",[3]; 31 g ai/ha,70
same,"Plant response rating, Beggarticks",[3]; 62 g ai/ha,80
same,"Plant response rating, Beggarticks",[3]; 125 g ai/ha,80
same,"Plant response rating, Beggarticks",[3]; 250 g ai/ha,95
same,"Plant response rating, Beggarticks",[3]; 500 g ai/ha,100
same,"Plant response rating, Crabgrass, Brazil",[4]; 31 g ai/ha,0
same,"Plant response rating, Crabgrass, Brazil",[4]; 62 g ai/ha,0
same,"Plant response rating, Crabgrass, Brazil",[4]; 125 g ai/ha,0
same,"Plant response rating, Crabgrass, Brazil",[4]; 250 g ai/ha,0
same,"Plant response rating, Crabgrass, Brazil",[4]; 500 g ai/ha,10
same,"Plant response rating, Dayflower, VA",[5]; 31 g ai/ha,0
same,"Plant response rating, Dayflower, VA",[5]; 62 g ai/ha,0
same,"Plant response rating, Dayflower, VA",[5]; 125 g ai/ha,0
same,"Plant response rating, Dayflower, VA",[5]; 250 g ai/ha,0
same,"Plant response rating, Dayflower, VA",[5]; 500 g ai/ha,0
same,"Plant response rating, Poinsettia, Wild",[6]; 31 g ai/ha,0
same,"Plant response rating, Poinsettia, Wild",[6]; 62 g ai/ha,0
same,"Plant response rating, Poinsettia, Wild",[6]; 125 g ai/ha,0
same,"Plant response rating, Poinsettia, Wild",[6]; 250 g ai/ha,0
same,"Plant response rating, Poinsettia, Wild",[6]; 500 g ai/ha,0
same,"Plant response rating, Panicum, Fall",[7]; 31 g ai/ha,0
same,"Plant response rating, Panicum, Fall",[7]; 250 g ai/ha,0
same,"Plant response rating, Pigweed, Palmer",[8]; 31 g ai/ha,80
same,"Plant response rating, Pigweed, Palmer",[8]; 62 g ai/ha,80
same,"Plant response rating, Pigweed, Palmer",[8]; 125 g ai/ha,95
same,"Plant response rating, Pigweed, Palmer",[8]; 250 g ai/ha,95
same,"Plant response rating, Pigweed, Palmer",[8]; 500 g ai/ha,100
same,"Plant response rating, Arrowleaf Sida","[9]; 31 g ai/ha, scale 0 to 100",50
same,"Plant response rating, Arrowleaf Sida","[9]; 62 g ai/ha, scale 0 to 100",50
same,"Plant response rating, Arrowleaf Sida","[9]; 125 g ai/ha, scale 0 to 100",60
same,"Plant response rating, Arrowleaf Sida","[9]; 250 g ai/ha, scale 0 to 100",75
same,"Plant response rating, Arrowleaf Sida",[9]; [14],80
same,"Plant response rating, Sandbur",[10]; 31 g ai/ha,0
same,"Plant response rating, Sandbur",[10]; 62 g ai/ha,0
same,"Plant response rating, Sandbur",[10]; 125 g ai/ha,0
same,"Plant response rating, Sandbur",[10]; 250 g ai/ha,0
same,"Plant response rating, Sandbur",[10]; 500 g ai/ha,0
same,"Plant response rating, Barnyardgrass",[11],0
same,"Plant response rating, Sedge, Umbrella",[12],0
same,"Plant response rating, Ducksalad",[13],0
same,"Plant response rating, Rice",rice (Oryza sativa),0
